Laboratory results published in US8821568B2, “Implant modified with non-hydroxylated vitamin D precursors” (Numat Biomedical S.L., priority 2008, dated 2014).

Experiments:
MC3T3-E1 cells [1] = experiment: Real-time RT-PCR of bone markers, plastic wells; format: cell-based, mouse; details: TCP, 2 days
Method: To test the effect of the different treatments onto the plastic wells, 96-well plates made of polystyrene were used and the treatments with 7-DHC performed directly onto them. Cells grown onto untreated TCP were added as a control for all the experiments. Cells were seeded at a density of 30,000 cells/cm^2 and they were maintained in α-MEM supplemented with 10% FCS and antibiotics. Culture media was collected after 48 hours, to test cytotoxicity and the production of the hydroxylated forms of vitamin D. Cells were harvested after 2 days of culture using Trizol reagent (Roche Diagnostics, Mannheim, Germany), to analyse early gene expression response of several osteoblast differentiation markers and enzymes involved in vitamin D synthesis using real-time RT-PCR.
RNA was isolated from cells using a monophasic solution of phenol and guanidine thiocyanate (Trizol, Roche Diagnostics, Mannheim, Germany) according to the manufacturer's protocol. RNA was quantified at 260 nm using a Nanodrop spectrophotometer (NanoDrop Technologies, Wilmington, Del., USA).
Total RNA previously isolated was reverse-transcribed to cDNA using High Capacity RNA to cDNA kit (Applied Biosystems, Foster City, Calif.) according to the protocol of the supplier. The same amount of total RNA from each sample was converted into cDNA. Each cDNA was diluted ¼ and aliquots were stored at −20° C. until the PCR reactions were carried out.
Real-time RT-PCR was performed for two reference genes: 18S ribosomal RNA (18S rRNA), glyceraldehyde-3-phosphate dehydrogenase (GAPDH), and 11 target genes alkaline phospathase (ALP), Interleukin 6 (IL-6), Collagen (Coll-1), Osteocalcin (OC), Bone Morphogenetic Protein 2 (BMP-2), Osterix (Osx), Receptor activator of nuclear factor kappa-B ligand (RANKL), Osteoprogesterin (OPG) and genes involved in vitamin D synthesis such as Vitamin D3 25-hydroxylase (CYP27A1), 25 hydroxyvitamin D3-1-alpha hydroxylase (CYP27B1) and 1,25-dihydroxyvitamin D3 24-hydroxylase (CYP24A1).
Real-time PCR were performed in the Lightcycler 480® (Roche Diagnostics, Germany). Each reaction contained 5 μl of LightCycler-FastStart DNA Master^PLUS SYBR Green I (Roche Diagnostics, Mannheim, Germany), 0.5 μM of the sense and antisense specific primers (Table 1) and 3 μl of the cDNA dilution in a final volume of 10 μl. The normal amplification program consisted of a preincubation step for denaturation of the template cDNA (10 min 95° C.), followed by 45 cycles consisting of a denaturation step (10 s 95° C.), an annealing step (10 s 60° C., except for ALP that was 10 s at 65° C., OSX with 10 s at 68° C. and CYP24A1 at 58° C. 10 s) and an extension step (10 s 72° C.). After each cycle, fluorescence was measured at 72° C. Every run included a negative control without cDNA template. To confirm amplification specificity, PCR products were subjected to a melting curve analysis on the LightCycler and subsequently 2% agarose/TAE gel electrophoresis, Tm and amplicon size, respectively.
To allow relative quantification after PCR, real-time efficiencies were calculated from the given slopes in the LightCycler 480 software (Roche Diagnostics, Mannheim, Germany) using serial dilutions. Relative quantification after PCR was calculated by normalizing target gene concentration in each sample by the concentration mean of the two reference genes in given sample using the “advanced relative quantification method” provided by the LightCycler 480 analysis software.

MC3T3-E1 cells [2] = experiment: Cell number (DNA content) and cell covered surface on coated titanium implants; format: cell-based, mouse; details: Ti implants, 48 h
Method: Cells growing on the different surfaces were lysed after 48 hours of cell culture by a freeze-thaw method in deionized distilled water. Cell lysates were used for determination of DNA quantity using Hoechst 33258 fluorescence assay. Samples were mixed with 20 μg/ml of Hoechst 33258 fluorescence stain (Sigma, St. Quentin Fallavier, France) in THE buffer at pH 7.4 containing 10 mM Tris-HCl, 1 mM EDTA and 2 M NaCl. The intensity of fluorescence was measured at excitation and emission wavelengths of 356/465 nm using a multifunction microplate reader (Cary Eclipse fluorescence spectrophotometer, Agilent Technologies, Santa Clara, United States). Relative fluorescence units were correlated with the cell number using a linear standard curve.
Confocal images were obtained of cells growing in the different treated surfaces at 48 hours of cell culture. […] Various images of each implant were taken with the confocal microscope (Leica DMI 4000B equipped with Leica TCS SPE laser system) by measuring fluorescence signal between 430-480 nm for DAPI and 500-525 nm for Phalloiding-FITC. […]
Quantitation of the percentage of titanium surface covered with MC3T3-E1cells was achieved by analyzing the previous images with ImageJ software (Rasband, W. S., ImageJ, U. S. National Institutes of Health, Bethesda, Md., USA).

## CC(C)CCC[C@@H](C)[C@H]1CC[C@H]2C3=CC=C4C[C@@H](O)CC[C@]4(C)[C@H]3CC[C@]12C [7-DHC, 7-dehydrocholesterol]
MC3T3-E1 cells [1]; 0.2 nmols UV-treated vs same treatment non UV-irradiated
  Collagen type-1 mRNA levels: increased mRNA levels
MC3T3-E1 cells [1]; 2 nmols UV-treated vs same treatment non UV-irradiated
  Osteocalcin mRNA levels: statistical differences
MC3T3-E1 cells [1]; 2×10^−2 nmols UV-treated vs non-irradiated
  Bone morphogenetic protein 2 mRNA levels: significantly lower levels
MC3T3-E1 cells [1]; 2×10^−3 nmols UV-treated vs same treatment non UV-irradiated
  ALP mRNA levels: Higher ALP mRNA levels
MC3T3-E1 cells [1]; all UV-treated groups vs non irradiated, significant at 0.2 and 2 nmols
  Osterix expression levels: Higher expression levels
MC3T3-E1 cells [1]; different doses, UV-treated vs UV-untreated
  IL-6 mRNA levels: No significant differences
MC3T3-E1 cells [1]; some UV-untreated samples compared to their control
  RANKL mRNA levels: lower
MC3T3-E1 cells [2]; 30 minutes of UV irradiation vs UV-untreated
  Cell number (DNA content): significantly higher amount of cells
MC3T3-E1 cells [2]; 30 minutes of UV irradiation vs without irradiation
  Percentage of implant surface covered with cells: significant greatest percentage
